Activity calls are given as the source filed them.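 How the source made its calls: active means compounds blocking proteasome disassembly by more than 40% at the highest tested dose; inconclusive means compounds bright enough on their own to skew readings; inactive means the rest.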 Where a SMILES comes first, the peptide text is derived from it. The star is where a group is joined. Cbz = O=C(OCc1ccccc1)*
target: 26S proteasome (lid disassembly, GFP-tagged; likely yeast); experiment: inhibitors of ATP-dependent 26S proteasome disassembly, dose response, biochemical, bead-based flow cytometry, GFP-tagged lid (AID 1062); details: GFP-proteasome beads, at 100 µM (top of the series)

inhibition of disassembly	SMILES
inactive	COC(=O)C1=C(C)N=c2s/c(=C/c3cccs3)c(=O)n2C1c1cccs1 (stereo unspecified)
inactive	CCN(CC)c1ccc(-c2c(C#N)c(N)nc(OC)c2C#N)cc1
inactive	O=c1cc(Nc2ccc3c(c2)OCCO3)[nH]c(=O)n1C1CCCCC1
inactive	COC(=O)c1ccc2c(c1)N(Cc1nc(-c3cccc(Cl)c3)oc1C)C(=O)C1CCCN21 (stereo unspecified)
inactive	Cc1noc(/C=C/c2ccco2)c1S(=O)(=O)N1CCC(C(=O)N2c3ccccc3CC2C)CC1 (stereo unspecified)
inactive	CC(C)C[C@@H](C=O)NC(=O)[C@H](CC(C)C)NC(=O)[C@H](CC(C)C)NC(=O)OCc1ccccc1 (Cbz-Leu-Leu-Leu-aldehyde)
inactive	Fc1ccc2nc(Nc3nc4c(s3)CCCC4)sc2c1
inactive	Cc1noc(/C=C/c2ccco2)c1S(=O)(=O)N1CCC(C(=O)N2CCc3ccccc3C2)CC1
inactive	COC(=O)[C@H]1[C@H]2C[C@@H]3c4[nH]c5cc(OC)ccc5c4CCN3C[C@H]2C[C@@H](OC(=O)c2cc(OC)c(OC)c(OC)c2)[C@@H]1OC

Continued, compound first:

SMILES	inhibition of disassembly
CCOc1ccc(/C=c2\sc3nc(-c4ccco4)nn3c2=O)cc1OCC	inactive
N#Cc1cc2c(nc1SCC(=O)Nc1sc3c(c1C#N)CCC3)CCCCC2	inactive
CCCOc1ccc(/C=c2\sc3nc(-c4ccco4)nn3c2=O)cc1OCC	inactive
Cc1noc(/C=C/c2ccco2)c1S(=O)(=O)N1CCC(C(=O)N(C)Cc2ccccc2)CC1	inactive
O=C1CC(c2ccccc2)Cc2nc(N3CCc4ccccc43)ncc21 (stereo unspecified)	inactive
Cc1ccc2nc(NC(=O)C3CCCN(S(=O)(=O)c4cccc5nsnc45)C3)sc2c1 (stereo unspecified)	inactive
Cc1ccc(C)c(N2CCN(S(=O)(=O)c3c(C)noc3/C=C/N(C)C)CC2)c1	inactive

same assay, conditions: GFP-proteasome beads, disassembly inhibition

EC50	SMILES
inactive	O=C(CN1C(=O)C2CCCN2c2ncc(Cl)cc21)NCc1ccc2c(c1)OCO2 (stereo unspecified)
25.9 µM	Cc1cccc(NC(=O)c2sc3nc(-c4ccc(F)cc4)cn3c2C)n1

Further lines, the compound ahead of its results:

SMILES	EC50
COC(=O)c1ccc2c(c1)N(Cc1nc(-c3ccc(Cl)cc3)oc1C)C(=O)C1CCCN21 (stereo unspecified)	> 100 µM (inactive)
CC(=O)N1C(=O)C(=C2C=C(C)OC(C)=C2)c2ccccc21	61.7 µM
O=C(Nc1ccccc1)C1=C(O)CC(c2ccco2)CC1=Nc1ccccc1 (stereo unspecified)	> 100 µM (inactive)

From PubChem BioAssay AID1062 (NMMLSC, 2008)
